Laboratory results: ChEMBL document CHEMBL2384927, “Development of Unsymmetrical Dyads As Potent Noncarbohydrate-Based Inhibitors against Human β-N-Acetyl-d-hexosaminidase” (ACS Med Chem Lett, 2013)
The source made the active and inactive calls. The calls are words filed in the database; no cut-off is given here.

Target: T1, Beta-N-acetyl-D-hexosaminidase-A/B (Homo sapiens) (UniProt P07686+P06865)
Experiment: Inhibition of human beta-N-acetyl-D-hexosaminidase-A/B using 4-Methylumbelliferyl N-acetyl-beta-D-glucosaminide as substrate at 50 uM incubated for 10 mins prior to substrate addition by spectrofluorometric analysis relative to control
Assay type: protein assay

Compound | inhibition [%]
NCCN1C(=O)c2cccc3cccc1c23 | < 50
CN(C)c1ccc2c3c(cccc13)C(=O)N(CCN)C2=O | < 50
O=C1c2cccc3cccc(c23)C(=O)N1CCNCCOc1ccc(OC(F)(F)F)cc1 | < 50
COc1ccc2c3c(cccc13)C(=O)N(CCN)C2=O | < 50
COc1ccc(SCCCNCCN2C(=O)c3cccc4cccc(c34)C2=O)cc1 | < 50
NCCCCCCN1C(=O)c2cccc3cccc(c23)C1=O | < 50
COc1cccc(NCCNCCN2C(=O)c3cccc4cccc(c34)C2=O)c1 | < 50
O=C1c2cccc3cccc(c23)C(=O)N1CCNCCOc1ccc(Cl)cc1 | < 50
NCCN1C(=O)c2ccccc2C1=O | < 50
NCCN1C(=O)c2cccc3c(Br)ccc(c23)C1=O | < 50
O=C1c2cccc3cccc(c23)C(=O)N1CCNCCOc1ccc([N+](=O)[O-])cc1 | < 50

Target: T1, Beta-N-acetyl-D-hexosaminidase-A/B (Homo sapiens)
Experiment: Competitive inhibition of human beta-N-acetyl-D-hexosaminidase-A/B using 4-Methylumbelliferyl N-acetyl-beta-D-glucosaminide as substrate at 0.1 mM incubated for 10 mins prior to substrate addition by Dixon plot analysis
Assay type: protein assay

Compound | inhibition
COc1ccc(CNCCN2C(=O)c3cccc4cccc(c34)C2=O)cc1 | Active

Target: T2, Beta-hexosaminidase subunit beta (Homo sapiens, UniProt P07686)
T2 sequence (P07686 whole entry): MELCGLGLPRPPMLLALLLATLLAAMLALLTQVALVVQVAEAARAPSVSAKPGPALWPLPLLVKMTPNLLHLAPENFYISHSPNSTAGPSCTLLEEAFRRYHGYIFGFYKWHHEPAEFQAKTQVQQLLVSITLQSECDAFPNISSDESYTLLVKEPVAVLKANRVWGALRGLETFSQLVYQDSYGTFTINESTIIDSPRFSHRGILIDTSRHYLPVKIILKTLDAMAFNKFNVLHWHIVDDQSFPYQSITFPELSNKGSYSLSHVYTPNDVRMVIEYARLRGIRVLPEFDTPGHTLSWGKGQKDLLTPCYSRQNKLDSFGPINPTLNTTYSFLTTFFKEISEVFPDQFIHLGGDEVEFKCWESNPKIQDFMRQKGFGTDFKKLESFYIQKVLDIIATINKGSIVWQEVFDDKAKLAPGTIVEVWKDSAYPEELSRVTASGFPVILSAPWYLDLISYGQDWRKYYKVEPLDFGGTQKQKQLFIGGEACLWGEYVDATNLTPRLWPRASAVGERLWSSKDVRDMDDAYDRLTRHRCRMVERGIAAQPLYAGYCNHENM
Experiment: Competitive inhibition of human beta-N-acetyl-D-hexosaminidase-B using 4-Methylumbelliferyl N-acetyl-beta-D-glucosaminide as substrate assessed as release of 4-Methylumbelliferyl fluorophore measured for 7 mins

Compound | IC50 [µM]
O=C1c2cccc3cccc(c23)C(=O)N1CCNCCN1C(=O)c2cccc3cccc(c23)C1=O | 3.1

Target: T3, Beta-hexosaminidase subunit alpha (Homo sapiens, UniProt P06865)
T3 sequence (P06865 whole entry): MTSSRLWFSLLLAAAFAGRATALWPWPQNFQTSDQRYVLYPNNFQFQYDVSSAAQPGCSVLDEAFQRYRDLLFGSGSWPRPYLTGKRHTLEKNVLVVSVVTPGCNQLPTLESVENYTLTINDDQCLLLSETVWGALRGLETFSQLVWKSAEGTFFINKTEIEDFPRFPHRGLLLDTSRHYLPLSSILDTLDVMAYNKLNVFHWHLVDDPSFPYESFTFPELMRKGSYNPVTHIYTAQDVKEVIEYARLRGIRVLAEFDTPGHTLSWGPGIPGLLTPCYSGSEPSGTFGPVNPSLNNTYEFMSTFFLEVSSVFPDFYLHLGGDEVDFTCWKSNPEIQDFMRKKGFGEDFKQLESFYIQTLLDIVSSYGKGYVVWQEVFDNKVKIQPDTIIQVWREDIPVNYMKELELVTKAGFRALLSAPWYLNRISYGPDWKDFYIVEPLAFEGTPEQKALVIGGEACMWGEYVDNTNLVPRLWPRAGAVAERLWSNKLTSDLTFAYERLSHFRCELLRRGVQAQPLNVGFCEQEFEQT
Experiment: Competitive inhibition of human beta-N-acetyl-D-hexosaminidase-A using 4-Methylumbelliferyl N-acetyl-beta-D-glucosaminide as substrate assessed as release of 4-Methylumbelliferyl fluorophore measured for 7 mins

Compound | IC50 [µM]
O=C1c2cccc3cccc(c23)C(=O)N1CCNCCN1C(=O)c2cccc3cccc(c23)C1=O | 6

Target: T4, Beta-N-acetyl-D-hexosaminidase-A/B (Homo sapiens, UniProt P07686+P06865)
T4 sequence (P07686 whole entry): T2 sequence (P07686 whole entry)
T4 sequence (P06865 whole entry): T3 sequence (P06865 whole entry)
Experiment: Inhibition of human beta-N-acetyl-D-hexosaminidase-A/B using 4-Methylumbelliferyl N-acetyl-beta-D-glucosaminide as substrate incubated for 10 mins prior to substrate addition by spectrofluorometric analysis
Assay type: protein assay

Compound | Ki [µM]
NCCN1C(=O)c2cccc3cccc(c23)C1=O | 2.09
COc1ccc(CNCCN2C(=O)c3cccc4cccc(c34)C2=O)cc1 | 0.63
COc1cccc(CNCCN2C(=O)c3cccc4cccc(c34)C2=O)c1 | 6.22
COc1ccc(NCCNCCN2C(=O)c3cccc4cccc(c34)C2=O)cc1 | 1.08
O=C1c2cccc3cccc(c23)C(=O)N1CCO | 30.87
COc1ccc(OCCNCCN2C(=O)c3cccc4cccc(c34)C2=O)cc1 | 1.04
CN(C)CCN1C(=O)c2cccc3cccc(c23)C1=O | 2.81
COc1ccc(OCCCNCCN2C(=O)c3cccc4cccc(c34)C2=O)cc1 | 1.23
COc1ccc(SCCNCCN2C(=O)c3cccc4cccc(c34)C2=O)cc1 | 1.13
NCCCCN1C(=O)c2cccc3cccc(c23)C1=O | 61.74
O=C1c2cccc3cccc(c23)C(=O)N1CCNCCOc1ccc2c(c1)OCO2 | 3
COc1ccc(CNCCN2C(=O)c3cccc4cccc(c34)C2=O)cc1OC | 4.99
COc1cccc(OCCNCCN2C(=O)c3cccc4cccc(c34)C2=O)c1 | 0.93
COc1cccc(OCCCNCCN2C(=O)c3cccc4cccc(c34)C2=O)c1 | 4.39
NCCCN1C(=O)c2cccc3cccc(c23)C1=O [NAPHTHALIMIDOPROPYLAMINE] | 29.08
COC(=O)c1ccc(OCCNCCN2C(=O)c3cccc4cccc(c34)C2=O)cc1 | 4.2
COc1ccccc1OCCNCCN1C(=O)c2cccc3cccc(c23)C1=O | 1.35
COc1ccc(OCCNCCN2C(=O)c3cccc4cccc(c34)C2=O)cc1OC | 0.69
COc1ccc(NCCNCCN2C(=O)c3cccc4cccc(c34)C2=O)c(OC)c1 | 4.63
O=C1c2cccc3cccc(c23)C(=O)N1CCNCCN1C(=O)c2cccc3cccc(c23)C1=O | 3.22
